This is an account of results in patent US5922727A, “Antiviral substituted pyrimidinedione homocarbocyclic nucleoside derivatives and methods for the preparation thereof and compositions containing the same as active ingredients” (Samjin Pharmaceutical Co., Ltd, priority 1996, dated 1999).

Structures are written as SMILES. Read-outs that look alike come from different tables or passages of the source. Bounds are passed on as bounds.

One data set has as its system MT-4 cells. Briefly: cytotoxicity: viability of mock-infected MT-4 host cells (MTT method). The format is cell-based. Details: unit not given here. As to conditions: mock-infected MT-4 cells. How it is done:
(§1) The anti-HIV assays were based on the inhibition of the virus-induced cytopathic effect in MT-4 cells as a described method in J. Med. Chem, 34, 357, 1991. Briefly, MT-4 cells were suspended in culture medium at 2.5×10^5 cells/ml and infected with 1000 CCID50 (50% cell culture infective dose) of HIV. Immediately, after virus infection, 100 μl of the cell suspension was brought into each well of a flat-bottomedmicrotitray containing various concentrations of the test compounds. After a 4 or 5 days incubation at 37° C., the number of viable cells was determined by the 3-(4,5-dimethylthiazol-2-yl)-2,5-diphenyltetrazolium bromide (MTT) method, as disclosed in J. Virol. Methods, 20, 309, 1988. The cytotoxicity of the compounds of the present invention was assessed in parallel with their antiviral activity. It was based on the viability of mock-infected host cells as determined by the MTT methods.
On the technique in general: Tetrazolium dyes change colour on reduction, which living cells bring about.

Another data set concerns HIV. The format is cell-based. As to conditions: ratio CD50/ED50. The procedure: as §1
Setting [1] is: marker b (undefined, shared with AZT^b).
Setting [2] is: marker d (undefined, shared with AZT^d).
The mark [3] stands for this setting: marker e (undefined, shared with AZT^e).
Setting [4] is: marker c (undefined, shared with AZT^c).

`Cc1cc(C)cc(Sc2c(C(C)C)c(=O)[nH]c(=O)n2CC2CCCC2)c1` [Example 20, 1-[(Cyclopentyl)methyl]-5-isopropyl-6-(3,5-dimethyphenylthio)-2,4-pyrimidinedione] had a CD50 in the data set with MT-4 cells (setting [1]) of 11.38. Moreover, the S.I. with HIV (setting [1]) was 24,264.

In the data set with MT-4 cells (setting [1]), `Cc1cc(C)cc(Oc2c(C(C)C)c(=O)[nH]c(=O)n2CC2CCCC2)c1` [Example 21, 1-(Cyclopentyl)methyl-5-isopropyl-6-(3,5-dimethylphenoxy)-2,4-pyrimidinedione] displayed a CD50 of 10.04. Also, the S.I. with HIV (setting [1]) is reported as 3,089.

In the case of `CCc1c(C(=O)c2cc(C)cc(C)c2)n(CC2CCCC2)c(=O)[nH]c1=O` [Example 23, 1-(Cyclopentyl)methyl-5-ethyl-6-(3,5-dimethylbenzoyl)-2,4-pyrimidinedione], in the data set on MT-4 cells (setting [2]), the CD50 was above 100. Also, in the data set on HIV (setting [2]), the S.I. is > 384,615.

In the data set with MT-4 cells (no run marker), `CCc1c(Sc2cc(C)cc(C)c2)n(CC2=CCC(CO)(CO)C2)c(=O)[nH]c1=O` [Example 25, 1-{[4-Bis(hydroxymethyl)cyclopent-1-en-1-yl]methyl}-5-ethyl-6-(3,5-dimethyl-phenylthio)-2,4-pyrimidinedione] showed a CD50 of 14.64. In addition, in the data set with HIV (no run marker), the S.I. is 2,762.

Turning to `CCc1c(C(=O)c2cc(C)cc(C)c2)n(CCC2=CCCC2)c(=O)[nH]c1=O` [Example 35, 1-[2-(Cyclopent-1-en-1-yl)ethyl]-5-ethyl-6-(3,5-dimethylbenzoyl)-2,4-pyrimidinedione], the CD50 in the data set with MT-4 cells (setting [2]) was found to be 28.58. Besides, in the data set with HIV (setting [2]), the S.I. is recorded as 9,958.

In the data set on MT-4 cells (setting [2]), `CCc1c(C(=O)c2cc(C)cc(C)c2)n(CCC2CC=CC2)c(=O)[nH]c1=O` [Example 36, 1-[2-(Cyclopent-3-en-1-yl)ethyl]-5-ethyl-6-(3,5-dimethylbenzoyl)-2,4-pyrimidinedione] showed a CD50 of 10.30. Also, in the data set on HIV (setting [2]), the S.I. is on record as 30,294.

For the molecule `Cc1cc(C)cc(C(=O)c2c(C(C)C)c(=O)[nH]c(=O)n2CCC2CC=CC2)c1` [Example 37, 1-[2-(Cyclopent-3-en-1-yl)ethyl]-5-isopropyl-6-(3,5-dimethylbenzoyl)-2,4-pyrimidinedione], the CD50 in the data set on MT-4 cells (setting [2]) was found to be 9.23. Moreover, the S.I. in the data set with HIV (setting [2]) is 13,377.

Regarding `CCc1c(C(=O)c2cc(C)cc(C)c2)n(CCC2C=CCC2)c(=O)[nH]c1=O` (stereo not drawn) [Example 40, 1-{2-(Cyclopent-2-en-1-yl)ethyl]-5-ethyl-6-(3,5-dimethylbenzoyl)-2,4-pyrimidinedione], the CD50 in the data set on MT-4 cells (setting [3]) is recorded as 7.11. In the data set on HIV (setting [3]), the S.I. was > 27,346.

For the molecule `Cc1cc(C)cc(Oc2c(C(C)C)c(=O)[nH]c(=O)n2CCC2C=CCC2)c1` (stereo not drawn) [Example 42, 1-[2-(Cyclopent-2-en-1-yl)ethyl]-5-isopropyl-6-(3,5-dimethylphenoxy)-2,4-pyrimidinedione], the CD50 with MT-4 cells (setting [3]) came to 7.53. Besides, the S.I. in the data set with HIV (setting [3]) was 2,353.

On to `CCc1c(C(=O)c2cc(C)cc(C)c2)n(CCC2CCCC2)c(=O)[nH]c1=O` [Example 44, 1-(2-Cyclopentyl)ethyl-5-ethyl-6-(3,5-dimethylbenzoyl)-2,4-pyrimidinedione], for which, in the data set with MT-4 cells (setting [3]), the CD50 is listed as 8.58. The S.I. in the data set with HIV (setting [3]) was 5,958.

The molecule `CCc1c(Sc2ccccc2)n(CC2CC2(CO)CO)c(=O)[nH]c1=O` (stereo not drawn) [Example 48, 1-[2-Bis(hydroxymethyl)cyclopropane-1-yl]methyl-5-ethyl-6-phenylthio-2,4-pyrimidinedione] yielded a CD50 with MT-4 cells (setting [4]) of 96.95. The S.I. with HIV (setting [4]) is 923.

With `CCc1c(Sc2cc(C)cc(C)c2)n(CC2CC2(CO)CO)c(=O)[nH]c1=O` (stereo not drawn) [Example 49, 1-[2-Bis(hydroxymethyl)cyclopropane-1-yl]methyl-5-ethyl-(3,5-dimethylphenylthio)-2,4-pyrimidinedione], in the data set with MT-4 cells (setting [4]), the CD50 was 21.56. For the same molecule, the S.I. in the data set on HIV (setting [4]) was 18,271.

The molecule `CCc1c(Oc2cc(C)cc(C)c2)n(CC2CC2(CO)CO)c(=O)[nH]c1=O` (stereo not drawn) [Example 50, 1-[2-Bis(hydroxymethyl)cyclopropane-1-yl]methyl-5-ethyl-6-(3,5-dimethylphenoxy)-2,4-pyrimidinedione] showed a CD50 in the data set on MT-4 cells (setting [4]) of 111.79. Further, the S.I. in the data set on HIV (setting [4]) was 7,763.

`CCc1c(C(=O)c2cc(C)cc(C)c2)n(CC2CC2(CO)CO)c(=O)[nH]c1=O` (stereo not drawn) [Example 51, 1-[2-Bis(hydroxymethyl)cyclopropane-1-yl]methyl-5-ethyl-6-(3,5-dimethylbenzoyl)-2,4-pyrimidinedione]: the CD50 in the data set with MT-4 cells (setting [4]) is recorded as 128.95. Besides, the S.I. with HIV (setting [4]) is 12,165.

With `CC(C)c1c(Sc2ccccc2)n(CC2CC2(CO)CO)c(=O)[nH]c1=O` (stereo not drawn) [Example 52, 1-[2-Bis(hydroxymethyl)cyclopropane-1-yl]methyl-5-isopropyl-6-phenylthio-2,4-pyrimidinedione], in the data set on MT-4 cells (setting [4]), the CD50 was 104.12. The S.I. in the data set on HIV (setting [4]) is 1,496.

`Cc1cc(C)cc(Sc2c(C(C)C)c(=O)[nH]c(=O)n2CC2CC2(CO)CO)c1` (stereo not drawn) [Example 53, 1-[2-Bis(hydroxymethyl)cyclopropane-1-yl]methyl-5-isopropyl-6-(3,5-dimethylphenylthio)-2,4-pyrimidinedione] returned a CD50 in the data set on MT-4 cells (setting [4]) of 13.39. For the same molecule, in the data set on HIV (setting [4]), the S.I. was 7,199.

In the data set with MT-4 cells (setting [4]), `Cc1cc(C)cc(Oc2c(C(C)C)c(=O)[nH]c(=O)n2CC2CC2(CO)CO)c1` (stereo not drawn) [Example 54, 1-[2-Bis(hydroxymethyl)cyclopropane-1-yl]methyl-5-isopropyl-6-(3,5-dimethylphenoxy)-2,4-pyrimidinedione] registered a CD50 of 7.69. In addition, in the data set with HIV (setting [4]), the S.I. is 3,004.

In the data set on MT-4 cells (setting [4]), `Cc1cc(C)cc(C(=O)c2c(C(C)C)c(=O)[nH]c(=O)n2CC2CC2(CO)CO)c1` (stereo not drawn) [Example 55, 1-[2-Bis(hydroxymethyl)cyclopropane-1-yl]methyl-5-isopropyl-6-(3,5-dimethylbenzoyl)-2,4-pyrimidinedione] showed a CD50 of 131.71. In addition, the S.I. in the data set with HIV (setting [4]) is 21,806.
